Assay results published in ChEMBL document CHEMBL3400143, “Discovery and hit-to-lead optimization of 2,6-diaminopyrimidine inhibitors of interleukin-1 receptor-associated kinase 4” (Bioorg Med Chem Lett, 2015).
Calls of active or inactive are those of the source. No cut-off for these calls is given here.

Experiments:
[1] = target: T1, Interleukin-1 receptor-associated kinase 4 (Homo sapiens, UniProt Q9NWZ3); test: Inhibition of N-terminal GST tagged human recombinant full-length IRAK4 expressed in Sf9 insect cells assessed as reduction in substrate phosphorylation using RP7030 peptide substrate and ATP incubated for 30 mins fluorescence polarization assay
T1 sequence (Q9NWZ3 whole entry): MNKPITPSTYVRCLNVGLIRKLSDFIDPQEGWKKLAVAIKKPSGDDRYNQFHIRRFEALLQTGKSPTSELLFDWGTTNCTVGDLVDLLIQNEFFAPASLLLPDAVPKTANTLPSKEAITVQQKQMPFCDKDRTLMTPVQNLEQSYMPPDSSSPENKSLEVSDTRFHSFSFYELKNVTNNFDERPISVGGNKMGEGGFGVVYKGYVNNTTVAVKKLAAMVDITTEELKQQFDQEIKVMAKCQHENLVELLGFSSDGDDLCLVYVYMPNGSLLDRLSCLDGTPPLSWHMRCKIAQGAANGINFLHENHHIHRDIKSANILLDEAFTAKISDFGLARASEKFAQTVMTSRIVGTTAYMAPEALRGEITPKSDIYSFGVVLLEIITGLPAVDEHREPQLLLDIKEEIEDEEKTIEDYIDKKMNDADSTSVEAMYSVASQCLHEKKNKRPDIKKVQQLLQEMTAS

[2] = target: Dual specificity protein kinase CLK4 (Homo sapiens) (UniProt Q9HAZ1); test: Inhibition of CLK4 (unknown origin)
[3] = target: Receptor-type tyrosine-protein kinase FLT3 (Homo sapiens) (UniProt P36888); test: Inhibition of FLT3 (unknown origin)
[4] = target: Mitogen-activated protein kinase kinase kinase kinase 4 (Homo sapiens) (UniProt O95819); test: Inhibition of MAP4K4 (unknown origin)
[5] = target: High affinity nerve growth factor receptor (Homo sapiens) (UniProt P04629); test: Inhibition of TRKA (unknown origin)
[6] = target: BDNF/NT-3 growth factors receptor (Homo sapiens) (UniProt Q16620); test: Inhibition of TRKB (unknown origin)
[7] = target: NT-3 growth factor receptor (Homo sapiens) (UniProt Q16288); test: Inhibition of TRKC (unknown origin)
NT-3 growth factor receptor (Homo sapiens), sequence (Q16288 32-839 limits assumed): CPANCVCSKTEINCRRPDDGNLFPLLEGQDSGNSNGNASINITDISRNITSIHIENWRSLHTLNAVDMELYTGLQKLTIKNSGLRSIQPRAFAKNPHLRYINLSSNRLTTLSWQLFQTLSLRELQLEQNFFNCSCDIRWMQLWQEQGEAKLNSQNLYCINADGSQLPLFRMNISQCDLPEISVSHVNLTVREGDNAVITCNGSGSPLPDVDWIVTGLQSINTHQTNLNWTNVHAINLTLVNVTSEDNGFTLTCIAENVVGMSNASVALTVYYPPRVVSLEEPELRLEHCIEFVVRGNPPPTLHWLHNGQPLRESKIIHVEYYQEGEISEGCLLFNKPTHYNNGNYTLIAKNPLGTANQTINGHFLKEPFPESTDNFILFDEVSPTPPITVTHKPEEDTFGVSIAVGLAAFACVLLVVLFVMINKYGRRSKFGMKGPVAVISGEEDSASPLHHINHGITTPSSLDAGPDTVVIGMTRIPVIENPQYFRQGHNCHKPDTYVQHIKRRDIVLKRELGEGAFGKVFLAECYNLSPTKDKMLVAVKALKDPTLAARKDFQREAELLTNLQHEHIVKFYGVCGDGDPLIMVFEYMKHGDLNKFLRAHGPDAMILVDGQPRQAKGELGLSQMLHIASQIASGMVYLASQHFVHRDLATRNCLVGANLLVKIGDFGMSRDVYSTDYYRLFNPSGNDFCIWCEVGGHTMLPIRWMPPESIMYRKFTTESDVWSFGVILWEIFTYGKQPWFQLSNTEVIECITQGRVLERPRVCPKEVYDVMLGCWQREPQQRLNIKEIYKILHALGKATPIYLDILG

High affinity nerve growth factor receptor (Homo sapiens), sequence (P04629 33-796 limits assumed): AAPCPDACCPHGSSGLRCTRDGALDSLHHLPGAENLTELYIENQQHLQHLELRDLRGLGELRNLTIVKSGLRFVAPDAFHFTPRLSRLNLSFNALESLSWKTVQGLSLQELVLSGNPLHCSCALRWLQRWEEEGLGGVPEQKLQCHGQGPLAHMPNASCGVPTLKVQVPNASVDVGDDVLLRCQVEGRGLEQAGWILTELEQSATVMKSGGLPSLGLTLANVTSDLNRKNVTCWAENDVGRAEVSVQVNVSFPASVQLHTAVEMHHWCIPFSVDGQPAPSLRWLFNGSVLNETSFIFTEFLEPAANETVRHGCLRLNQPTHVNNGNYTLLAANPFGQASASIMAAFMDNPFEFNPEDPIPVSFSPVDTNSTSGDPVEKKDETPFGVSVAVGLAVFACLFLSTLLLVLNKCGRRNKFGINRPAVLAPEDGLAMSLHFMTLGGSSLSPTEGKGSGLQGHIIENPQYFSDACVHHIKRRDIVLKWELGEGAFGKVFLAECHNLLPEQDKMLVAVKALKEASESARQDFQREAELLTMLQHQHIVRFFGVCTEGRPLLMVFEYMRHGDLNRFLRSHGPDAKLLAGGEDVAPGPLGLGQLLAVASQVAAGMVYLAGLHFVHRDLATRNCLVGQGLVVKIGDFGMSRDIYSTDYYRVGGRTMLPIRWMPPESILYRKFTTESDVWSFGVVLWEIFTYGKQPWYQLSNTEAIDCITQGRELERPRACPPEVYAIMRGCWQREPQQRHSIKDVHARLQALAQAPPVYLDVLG
Mitogen-activated protein kinase kinase kinase kinase 4 (Homo sapiens), sequence (O95819 2-1239 limits assumed): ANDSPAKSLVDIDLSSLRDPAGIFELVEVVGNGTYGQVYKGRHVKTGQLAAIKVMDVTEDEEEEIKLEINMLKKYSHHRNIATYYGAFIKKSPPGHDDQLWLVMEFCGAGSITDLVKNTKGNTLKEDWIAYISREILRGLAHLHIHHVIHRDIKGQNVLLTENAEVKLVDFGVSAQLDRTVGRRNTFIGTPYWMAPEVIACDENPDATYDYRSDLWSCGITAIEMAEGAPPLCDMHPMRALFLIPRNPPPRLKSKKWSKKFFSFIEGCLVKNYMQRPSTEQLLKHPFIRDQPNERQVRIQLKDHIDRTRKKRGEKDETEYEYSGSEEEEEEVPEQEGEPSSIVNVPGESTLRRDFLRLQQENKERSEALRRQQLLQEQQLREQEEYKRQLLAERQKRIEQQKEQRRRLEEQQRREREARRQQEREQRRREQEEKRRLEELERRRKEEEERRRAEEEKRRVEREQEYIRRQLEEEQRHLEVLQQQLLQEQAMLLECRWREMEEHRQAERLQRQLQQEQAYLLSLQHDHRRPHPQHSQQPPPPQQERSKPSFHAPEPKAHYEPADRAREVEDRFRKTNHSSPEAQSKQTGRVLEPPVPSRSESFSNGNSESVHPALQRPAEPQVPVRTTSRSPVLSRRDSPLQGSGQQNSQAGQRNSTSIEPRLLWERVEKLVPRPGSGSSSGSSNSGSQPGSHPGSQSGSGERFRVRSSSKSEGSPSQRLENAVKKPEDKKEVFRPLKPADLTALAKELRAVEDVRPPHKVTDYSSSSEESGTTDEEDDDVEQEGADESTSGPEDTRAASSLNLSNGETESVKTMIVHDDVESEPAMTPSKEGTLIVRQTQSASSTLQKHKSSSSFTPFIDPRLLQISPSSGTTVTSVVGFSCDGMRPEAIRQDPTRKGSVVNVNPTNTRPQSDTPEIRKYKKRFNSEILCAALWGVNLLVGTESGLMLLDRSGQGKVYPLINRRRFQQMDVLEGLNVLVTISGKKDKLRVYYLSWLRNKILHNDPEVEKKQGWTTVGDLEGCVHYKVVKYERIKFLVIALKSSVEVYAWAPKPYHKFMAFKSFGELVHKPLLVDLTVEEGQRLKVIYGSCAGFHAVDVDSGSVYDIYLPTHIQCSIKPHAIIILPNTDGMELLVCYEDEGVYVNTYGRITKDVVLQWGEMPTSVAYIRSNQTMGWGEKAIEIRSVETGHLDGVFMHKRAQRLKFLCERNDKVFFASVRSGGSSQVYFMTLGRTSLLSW
BDNF/NT-3 growth factors receptor (Homo sapiens), sequence (Q16620 32-822 limits assumed): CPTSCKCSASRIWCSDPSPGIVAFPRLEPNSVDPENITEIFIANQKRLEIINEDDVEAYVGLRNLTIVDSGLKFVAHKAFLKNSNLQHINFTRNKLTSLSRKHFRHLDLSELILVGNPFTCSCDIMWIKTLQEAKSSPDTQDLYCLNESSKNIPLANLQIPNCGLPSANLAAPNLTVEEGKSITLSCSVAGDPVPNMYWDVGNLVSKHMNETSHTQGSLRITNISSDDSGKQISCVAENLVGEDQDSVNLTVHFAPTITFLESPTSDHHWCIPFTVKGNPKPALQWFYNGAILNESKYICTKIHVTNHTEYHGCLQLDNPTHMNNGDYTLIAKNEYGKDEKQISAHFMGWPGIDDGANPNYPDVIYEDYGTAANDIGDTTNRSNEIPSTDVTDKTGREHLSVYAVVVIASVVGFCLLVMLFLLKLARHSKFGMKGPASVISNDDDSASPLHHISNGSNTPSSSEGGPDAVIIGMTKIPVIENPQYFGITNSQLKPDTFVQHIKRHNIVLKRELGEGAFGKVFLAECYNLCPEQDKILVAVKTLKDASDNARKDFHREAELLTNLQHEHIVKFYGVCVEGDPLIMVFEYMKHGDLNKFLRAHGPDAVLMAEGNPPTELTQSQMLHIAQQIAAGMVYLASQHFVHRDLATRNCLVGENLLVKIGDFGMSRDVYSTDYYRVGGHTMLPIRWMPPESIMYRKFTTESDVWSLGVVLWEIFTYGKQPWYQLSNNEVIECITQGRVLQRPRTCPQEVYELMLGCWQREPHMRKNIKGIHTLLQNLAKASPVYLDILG
Receptor-type tyrosine-protein kinase FLT3 (Homo sapiens), sequence (P36888 whole entry): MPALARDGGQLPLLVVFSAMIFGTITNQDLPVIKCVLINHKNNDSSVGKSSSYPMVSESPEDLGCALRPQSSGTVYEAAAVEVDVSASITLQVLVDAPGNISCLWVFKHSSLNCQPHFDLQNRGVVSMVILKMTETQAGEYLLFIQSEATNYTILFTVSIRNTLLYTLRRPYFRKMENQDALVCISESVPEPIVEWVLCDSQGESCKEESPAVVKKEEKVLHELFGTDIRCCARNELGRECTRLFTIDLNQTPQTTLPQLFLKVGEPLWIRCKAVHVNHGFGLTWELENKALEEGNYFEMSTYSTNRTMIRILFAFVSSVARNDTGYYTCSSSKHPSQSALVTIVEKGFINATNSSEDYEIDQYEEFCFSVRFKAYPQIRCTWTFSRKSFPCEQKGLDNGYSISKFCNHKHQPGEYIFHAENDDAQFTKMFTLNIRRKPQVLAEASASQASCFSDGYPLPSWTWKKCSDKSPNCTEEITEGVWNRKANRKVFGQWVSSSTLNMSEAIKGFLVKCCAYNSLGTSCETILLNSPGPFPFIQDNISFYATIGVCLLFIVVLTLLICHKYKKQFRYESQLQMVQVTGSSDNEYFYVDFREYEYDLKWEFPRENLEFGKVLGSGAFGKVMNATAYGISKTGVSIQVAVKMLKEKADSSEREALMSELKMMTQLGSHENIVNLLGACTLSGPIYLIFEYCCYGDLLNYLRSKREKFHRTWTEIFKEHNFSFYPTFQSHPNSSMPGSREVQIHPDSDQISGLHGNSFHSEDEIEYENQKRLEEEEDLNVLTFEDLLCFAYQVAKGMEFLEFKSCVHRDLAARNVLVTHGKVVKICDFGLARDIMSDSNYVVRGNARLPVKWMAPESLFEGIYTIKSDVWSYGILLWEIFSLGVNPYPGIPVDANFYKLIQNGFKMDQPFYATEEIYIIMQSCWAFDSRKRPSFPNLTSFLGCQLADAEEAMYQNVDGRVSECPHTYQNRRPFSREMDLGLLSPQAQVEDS
Dual specificity protein kinase CLK4 (Homo sapiens), sequence (Q9HAZ1 whole entry, looked up): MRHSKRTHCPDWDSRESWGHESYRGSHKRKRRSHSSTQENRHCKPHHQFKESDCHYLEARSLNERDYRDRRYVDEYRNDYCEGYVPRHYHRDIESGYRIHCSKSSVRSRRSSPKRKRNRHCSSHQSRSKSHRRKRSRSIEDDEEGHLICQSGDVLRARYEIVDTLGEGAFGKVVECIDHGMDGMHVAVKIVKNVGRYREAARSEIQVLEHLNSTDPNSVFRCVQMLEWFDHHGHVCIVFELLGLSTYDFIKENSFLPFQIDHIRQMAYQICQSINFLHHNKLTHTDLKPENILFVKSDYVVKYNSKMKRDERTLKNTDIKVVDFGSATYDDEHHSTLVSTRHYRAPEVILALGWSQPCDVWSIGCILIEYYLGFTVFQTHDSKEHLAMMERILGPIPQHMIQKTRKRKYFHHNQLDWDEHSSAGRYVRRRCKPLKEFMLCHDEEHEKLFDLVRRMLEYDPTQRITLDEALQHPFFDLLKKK

Compound: Cc1nc(NCC2CC2)nc(N[C@@H]2C[C@H](CO)[C@@H](O)[C@H]2O)c1-c1nc2ccccc2s1
- IC50 [1]: > 20000 nM
- inhibition [2]: Active
- inhibition [3]: Active
- inhibition [4]: Active
- inhibition [5]: Active
- inhibition [6]: Active
- inhibition [7]: Active

Compound: CCCNc1nc(C)c(-c2nc3ccccc3s2)c(N2CCOCC2)n1
- IC50 [1]: > 20000 nM
- inhibition [2]: Active
- inhibition [3]: Active
- inhibition [4]: Active
- inhibition [5]: Active
- inhibition [6]: Active
- inhibition [7]: Active

Compound: Nc1nc(N[C@@H]2C[C@H](CO)[C@@H](O)[C@H]2O)c(-c2nc3ccccc3s2)c(C2CC2)n1
- IC50 [1]: > 20000 nM
- inhibition [2]: Active
- inhibition [3]: Active
- inhibition [4]: Active
- inhibition [5]: Active
- inhibition [6]: Active
- inhibition [7]: Active

Compound: Nc1ncc(-c2ccccc2)c(N[C@@H]2C[C@H](CO)[C@@H](O)[C@H]2O)n1
- IC50 [1]: > 20000 nM
- inhibition [2]: Active
- inhibition [3]: Active
- inhibition [4]: Active
- inhibition [5]: Active
- inhibition [6]: Active
- inhibition [7]: Active

Compound: COc1nc(N)nc(N[C@@H]2C[C@H](CO)[C@@H](O)[C@H]2O)c1-c1nc2ccccc2s1
- IC50 [1]: > 20000 nM
- inhibition [2]: Active
- inhibition [3]: Active
- inhibition [4]: Active
- inhibition [5]: Active
- inhibition [6]: Active
- inhibition [7]: Active

Compound: OC[C@H]1C[C@@H](Nc2nc(NC3CCC3)ncc2-c2nc3ccccc3s2)[C@H](O)[C@@H]1O
- IC50 [1]: 403 nM
- inhibition [2]: Active
- inhibition [3]: Active
- inhibition [4]: Active
- inhibition [5]: Active
- inhibition [6]: Active
- inhibition [7]: Active

Compound: OC[C@H]1C[C@@H](Nc2nc(NCC3CC3)ncc2-c2nc3ccccc3s2)[C@H](O)[C@@H]1O
- IC50 [1]: 333 nM
- inhibition [2]: Active
- inhibition [3]: Active
- inhibition [4]: Active
- inhibition [5]: Active
- inhibition [6]: Active
- inhibition [7]: Active

Compound: Nc1ncc(-c2nc3cccnc3s2)c(N[C@@H]2C[C@H](CO)[C@@H](O)[C@H]2O)n1
- IC50 [1]: 530 nM
- inhibition [2]: Active
- inhibition [3]: Active
- inhibition [4]: Active
- inhibition [5]: Active
- inhibition [6]: Active
- inhibition [7]: Active

Compound: Nc1ncc(-c2nc3ccncc3s2)c(N[C@@H]2C[C@H](CO)[C@@H](O)[C@H]2O)n1
- inhibition [2]: Active
- inhibition [3]: Active
- inhibition [4]: Active
- inhibition [5]: Active
- inhibition [6]: Active
- inhibition [7]: Active

Compound: Nc1ncc(-c2ncc(-c3ccccc3)s2)c(N[C@@H]2C[C@H](CO)[C@@H](O)[C@H]2O)n1
- IC50 [1]: > 20000 nM
- inhibition [2]: Active
- inhibition [3]: Active
- inhibition [4]: Active
- inhibition [5]: Active
- inhibition [6]: Active
- inhibition [7]: Active

Compound: COCCCNc1ncc(-c2nc3ccccc3s2)c(N[C@@H]2C[C@H](CO)[C@@H](O)[C@H]2O)n1
- IC50 [1]: 228 nM
- inhibition [2]: Active
- inhibition [3]: Active
- inhibition [4]: Active
- inhibition [5]: Active
- inhibition [6]: Active
- inhibition [7]: Active

Compound: Nc1ncc(-c2ccccn2)c(N[C@@H]2C[C@H](CO)[C@@H](O)[C@H]2O)n1
- IC50 [1]: 830 nM
- inhibition [2]: Active
- inhibition [3]: Active
- inhibition [4]: Active
- inhibition [5]: Active
- inhibition [6]: Active
- inhibition [7]: Active

Compound: Cc1cc(Nc2ncc(-c3nc4ccncc4s3)c(N[C@@H]3C[C@H](CO)[C@@H](O)[C@H]3O)n2)cc(C)n1
- IC50 [1]: 300 nM
- inhibition [2]: Active
- inhibition [3]: Active
- inhibition [4]: Active
- inhibition [5]: Active
- inhibition [6]: Active
- inhibition [7]: Active

Compound: Nc1nc(Cl)c(-c2nc3ccccc3s2)c(N[C@@H]2C[C@H](CO)[C@@H](O)[C@H]2O)n1
- IC50 [1]: 170 nM
- inhibition [2]: Active
- inhibition [3]: Active
- inhibition [4]: Active
- inhibition [5]: Active
- inhibition [6]: Active
- inhibition [7]: Active

Compound: Nc1ncc(-c2nc(-c3ccccc3)cs2)c(N[C@@H]2C[C@H](CO)[C@@H](O)[C@H]2O)n1
- inhibition [2]: Active
- inhibition [3]: Active
- inhibition [4]: Active
- inhibition [5]: Active
- inhibition [6]: Active
- inhibition [7]: Active

Compound: CCCNc1nc(C)c(-c2nc3ccccc3s2)c(N[C@@H]2C[C@H](CO)[C@@H](O)[C@H]2O)n1
- IC50 [1]: 240 nM
- inhibition [2]: Active
- inhibition [3]: Active
- inhibition [4]: Active
- inhibition [5]: Active
- inhibition [6]: Active
- inhibition [7]: Active

Compound: Nc1ncc(-c2nc3cnccc3s2)c(N[C@@H]2C[C@H](CO)[C@@H](O)[C@H]2O)n1
- inhibition [2]: Active
- inhibition [3]: Active
- inhibition [4]: Active
- inhibition [5]: Active
- inhibition [6]: Active
- inhibition [7]: Active

Compound: Nc1ncc(-c2nccs2)c(N[C@@H]2C[C@H](CO)[C@@H](O)[C@H]2O)n1
- IC50 [1]: 4700 nM
- inhibition [2]: Active
- inhibition [3]: Active
- inhibition [4]: Active
- inhibition [5]: Active
- inhibition [6]: Active
- inhibition [7]: Active

Compound: OC[C@H]1C[C@@H](Nc2nc(Nc3cncnc3)ncc2-c2nc3ccccc3s2)[C@H](O)[C@@H]1O
- IC50 [1]: 6000 nM
- inhibition [2]: Active
- inhibition [3]: Active
- inhibition [4]: Active
- inhibition [5]: Active
- inhibition [6]: Active
- inhibition [7]: Active

Compound: Cn1c(-c2cnc(N)nc2N[C@@H]2C[C@H](CO)[C@@H](O)[C@H]2O)nc2ccccc21
- IC50 [1]: > 20000 nM
- inhibition [2]: Active
- inhibition [3]: Active
- inhibition [4]: Active
- inhibition [5]: Active
- inhibition [6]: Active
- inhibition [7]: Active

Compound: CCCNc1nc(C)c(-c2nc3ccccc3s2)c(N[C@@H]2CC[C@@H](O)[C@H]2O)n1 (racemic)
- IC50 [1]: > 20000 nM
- inhibition [2]: Active
- inhibition [3]: Active
- inhibition [4]: Active
- inhibition [5]: Active
- inhibition [6]: Active
- inhibition [7]: Active

Compound: Nc1ncc(-c2cnc3ccccn23)c(N[C@@H]2C[C@H](CO)[C@@H](O)[C@H]2O)n1
- IC50 [1]: 1140 nM
- inhibition [2]: Active
- inhibition [3]: Active
- inhibition [4]: Active
- inhibition [5]: Active
- inhibition [6]: Active
- inhibition [7]: Active

Compound: Nc1nc(N[C@@H]2C[C@H](CO)[C@@H](O)[C@H]2O)c(-c2nc3ccccc3s2)c(C(F)(F)F)n1
- IC50 [1]: > 20000 nM
- inhibition [2]: Active
- inhibition [3]: Active
- inhibition [4]: Active
- inhibition [5]: Active
- inhibition [6]: Active
- inhibition [7]: Active

Compound: CCCNc1ncc(-c2nc3ccccc3s2)c(N[C@@H]2C[C@H](CO)[C@@H](O)[C@H]2O)n1
- IC50 [1]: 1190 nM
- inhibition [2]: Active
- inhibition [3]: Active
- inhibition [4]: Active
- inhibition [5]: Active
- inhibition [6]: Active
- inhibition [7]: Active

Compound: Cc1cc(Nc2ncc(-c3nc4ccccc4s3)c(N[C@@H]3C[C@H](CO)[C@@H](O)[C@H]3O)n2)ccn1
- IC50 [1]: 1000 nM
- inhibition [2]: Active
- inhibition [3]: Active
- inhibition [4]: Active
- inhibition [5]: Active
- inhibition [6]: Active
- inhibition [7]: Active

Compound: Nc1ncc(-c2nc3ccccc3s2)c(N[C@@H]2C[C@H](CO)[C@@H](O)[C@H]2O)n1
- IC50 [1]: 240 nM
- inhibition [2]: Active
- inhibition [3]: Active
- inhibition [4]: Active
- inhibition [5]: Active
- inhibition [6]: Active
- inhibition [7]: Active

Compound: OC[C@H]1C[C@@H](Nc2nc(NC3CCOCC3)ncc2-c2nc3ccccc3s2)[C@H](O)[C@@H]1O
- IC50 [1]: 1080 nM
- inhibition [2]: Active
- inhibition [3]: Active
- inhibition [4]: Active
- inhibition [5]: Active
- inhibition [6]: Active
- inhibition [7]: Active

Compound: Nc1ncc(-c2ccc3ccccc3n2)c(N[C@@H]2C[C@H](CO)[C@@H](O)[C@H]2O)n1
- inhibition [2]: Active
- inhibition [3]: Active
- inhibition [4]: Active
- inhibition [5]: Active
- inhibition [6]: Active
- inhibition [7]: Active

Compound: Nc1ncc(-c2nc3ccccc3o2)c(N[C@@H]2C[C@H](CO)[C@@H](O)[C@H]2O)n1
- inhibition [2]: Active
- inhibition [3]: Active
- inhibition [4]: Active
- inhibition [5]: Active
- inhibition [6]: Active
- inhibition [7]: Active
